Patent US3962256A, “2-Aminomethyl benzimidazole derivatives” (Delalande S.A., priority 1973, dated 1976)

What was measured:
[1] = test system: painful stretchings caused by the intraperitoneal injection of acetic acid; assay: Analgesic: reduction of painful stretchings caused by intraperitoneal acetic acid, oral, mouse; format: in vivo; settings: 100 mg/Kg/p.o.
Procedure: The compounds of formula (I), administered by oral means to the mouse, are capable of reducing the number of painful stretchings caused by the intraperitoneal injection of acetic acid.
By way of example, the following Table III lists the results obtained by administration of 100 mg/Kg/p.o. of different compounds of formula (I).

[2] = test system: explorations in the escape enclosure; assay: Sedative: reduction of number of explorations in the escape enclosure; format: in vivo; settings: 100 mg/Kg/p.o., mouse
Procedure: The compounds of formula (I), administered by oral means to the mouse, reduce the number of explorations in the escape enclosure.
By way of example, the following Table VIII lists the results obtained by the administration of 100 mg/Kg/p.o. of different compounds of formula (I).

[3] = test system: bronchoconstriction provoked in the guinea-pig by acetylcholine; assay: Antibronchoconstrictive and anticholinergic: bronchoconstriction by intravenous acetylcholine, Konzett method; format: in vivo
Excerpt: Injected by intraveinous or intraduodenal means, the compounds of formula (I) are capable of opposing the bronchoconstriction provoked in the guinea-pig by the itraveinous injection of acetylcholine by the Konzett method.
By way of example, the following Table VII lists the results obtained by the administration of different compounds of formula (I)

[4] = Lethal doses / percentage mortality, oral; format: in vivo; settings: 2 000 mg/Kg/p.o.; 2000 mg/kg
Excerpt: As a result of a comparison between the pharmacologically active doses mentioned above and the lethal doses listed in the following Table XII, the difference between said doses is sufficiently great to permit the utilisation of the compounds of formula (I) in therapeutics.

[5] = test system: rat suffering from high blood pressure; assay: Antihypertensive: return of systolic arterial pressure to normal in rats with high blood pressure; format: in vivo
Excerpt: The compounds of formula (I), administered by oral means to a rat suffering from high blood pressure, are capable of lowering the systolic arteriel pressure.
By way of example, there is provided in the following Table IV the results obtained by administration of different compounds of formula (I).

[6] = test system: gastric ulcers, provoked in a rat by tying of the pylorus (Shay ulcers); assay: Antiulcerous: reduction of Shay ulcers (tying of the pylorus); format: in vivo; settings: 50 mg/Kg/i.d.
Procedure: The compounds of formula (I) administered by intraduodenal means reduce the extent of gastric ulcers, provoked in a rat by tying of the pylorus (Shay ulcers).
By way of example, there is listed in the following Table IX, the results obtained by the administrations of 50 mg/Kg/i.d. of different compounds of formula (I).

[7] = test system: isolated heart of a guinea-pig; assay: Vasodilatatory: coronary flow of isolated heart; settings: 1 μg/ml in perfusion liquid
Procedure: The compounds of formula (I) are capable of augmenting the flow of the coronary vessels of the isolated heart of a guinea-pig when said compounds are added in the perfusion liquid of said organ.
By way of example, there can be found in the following Table X, the percentage augmentation of the flow of the isolated heart of a guinea-pig by adding different compounds of formula (I) to the perfusion liquid, in a concentration of 1 μg/ml.

[8] = test system: ventricular fibrillations provoked by the inhalation of chloroform; assay: Antiarythmic: protection against ventricular fibrillations provoked by inhalation of chloroform; format: in vivo; settings: i.p., mouse
Excerpt: Administered by intraperitoneal means, the compounds of formula (I) are capable of protecting the mouse against the ventricular fibrillations provoked by the inhalation of chloroform.

[9] = test system: oedema caused by the sub-plantar injection of carraghenin; assay: Antiinflammatory: reduction of sub-plantar oedema caused by carraghenin, rat; format: in vivo; settings: 100 mg/Kg/p.o.
Procedure: These properties are shown by a diminution of the local oedema caused by the sub-plantar injection of a phlogogenic agent, such as carraghenin, in the rat following the oral administration of compounds of formula (I).
The following Table VI lists, by way of example, the percentage reduction of the oedems caused by the sub-plantar injection of carraghenin, resulting from the administration of 100 mg/Kg/p.o. of different compounds of formula (I).

[10] = test system: volume of urine emitted; assay: Diuretic: augmentation of urinary elimination; format: in vivo; settings: 25 mg/Kg/p.o., mouse, 6 hours
Procedure: The compounds of formula (I), administered by oral means to the mouse, simultaneously with a volume of 1 ml. of an isotonic solution of sodium chloride per 25 g of the corporeal weight of the mouse, are capable of provoking an augmentation of the volume of urine emitted by reference to control animals, the volume being measured for 6 hours following administration.
By way of example, the following Table XI lists the results obtained by the administration of 25 mg/Kg/p.o. of different compounds of formula (I).

[11] = test system: isolated duodenum of the rat; assay: Spasmolytic: opposing barium chloride contraction of isolated duodenum; settings: papaverine as standard
Procedure: The compounds of formula (I), introduced in the conserving medium are capable of opposing the contractural action of barium chloride on the isolated duodenum of the rat. This activity is evaluated by taking papaverine as standard.

[12] = test system: excursions into the escape enclosure; assay: Central nervous system stimulation: excursions in the escape test; format: in vivo; settings: 100 mg/Kg/p.o., mouse
Procedure: The compounds of formula (I), administered by oral means to the mouse, provoke an augmentation of the number of excursions into the escape enclosure.
Thus, following the administration of 100 mg/Kg/p.o. of the compounds of Code Nos. 72 457 and 72 736, an augmentation of 30% in the number of excursions in the escape test, is observed.

[13] = test system: gastric secretion measured after Shay ligature; assay: Gastric antisecretory: reduction of gastric secretion after Shay ligature, rat; format: in vivo; settings: 50 mg/Kg/i.d.
Procedure: Administered by intraduodenal means to a rat, the compounds of formula (I) are capable of reducing the gastric secretion measured after Shay ligature.
By way of example, the following Table V gives the results obtained by administration of 50 mg/Kg/i.d. of different compounds of formula (I).

| SMILES | Percentage reduction of number of painful stretchings [1] | Percentage inhibition of bronchoconstriction ([3]; 100 mg/kg/i.d.) | Percentage mortality [4] | Percentage reduction of Shay ulcers [6] | further results |
| --- | --- | --- | --- | --- | --- |
| COc1ccc(C(=O)CCn2c(CN3CCOCC3)nc3ccccc32)cc1OC [72 391] | 60% | 100% | 0% |  | Percentage reduction of number of explorations in the escape enclosure [2]: 50% |
| COc1cc(C(=O)CCn2c(CN3CCCC3)nc3ccccc32)cc(OC)c1OC [72 414] |  | 50% |  |  | Percentage of rats with high blood pressure whose systolic arteriel pressure is returned to normal ([5]; 150 mg/Kg/p.o.): 75% |
| CCCCOc1ccc(C(=O)CCn2c(CN3CCCCC3)nc3ccccc32)cc1 [72 464] |  |  | 0% |  | Percentage reduction of number of explorations in the escape enclosure [2]: 30% |
| CCN(CC)Cc1nc2ccccc2n1CCC(=O)c1ccc(C)cc1.O=C(O)/C=C\C(=O)O [72 574] | 45% |  |  | 45% |  |
| CN(C)Cc1nc2ccccc2n1CCC(=O)c1ccc(Cl)cc1 [72 479] |  |  | 0% | 30% | Percentage of rats with high blood pressure whose systolic arteriel pressure is returned to normal ([5]; 200 mg/Kg/p.o.): 50%; Percentage augmentations of flow of isolated heart of a guinea-pig [7]: 80%; DE 50 [8]: 200 mg/Kg/i.p. |
| COc1ccc(C(=O)CCn2c(CN3CCCC3)nc3ccccc32)cc1OC [72 617] | 70% |  |  |  |  |
| Cc1ccc(C(=O)CCn2c(CN3CCOCC3)nc3ccccc32)c(C)c1 [72 447] |  | 50% | 0% | 35% | Percentage reduction of sub-plantar oedema [9]: 40%; Percentage augmentation of urinary elimination [10]: 70% |
| CCN(CC)Cc1nc2ccccc2n1CCC(=O)c1ccc(C)cc1C.O=C(O)/C=C\C(=O)O [72 736] |  |  |  | 30% | spasmolytic activity relative to papaverine [11]: equivalent spasmolytic actvity to that of papaverine; Percentage inhibition of bronchoconstriction ([3]; 10 mg/kg/i.v.): 90%; augmentation in the number of excursions in the escape test [12]: 30% |
| COc1ccc(C(=O)CCn2c(CN3CCCCC3)nc3ccccc32)cc1OC [72 377] |  |  | 0% | 55% | Percentage reduction of number of explorations in the escape enclosure [2]: 30% |
| O=C(CCn1c(CN2CCCC2)nc2ccccc21)c1ccccc1 [72 493] |  |  |  |  | Percentage reductions in volume of gastric secretion [13]: 25% |
| O=C(CCn1c(CN2CCCC2)nc2ccccc21)c1ccc(F)cc1 [72 708] | 60% | 90% |  | 30% | spasmolytic activity relative to papaverine [11]: equivalent spasmolytic actvity to that of papaverine |
| O=C(CCn1c(CN2CCCCC2)nc2ccccc21)c1ccc(F)cc1 [72 487] | 80% | 60% |  |  | Percentage reductions in volume of gastric secretion [13]: 40% |
| CCN(CC)Cc1nc2ccccc2n1CCC(=O)c1ccc(OC)c(OC)c1.O=C(O)/C=C\C(=O)O [72 692] |  |  |  |  | Percentage augmentation of urinary elimination [10]: 70%; Percentage reduction of number of explorations in the escape enclosure [2]: 30%; Percentage augmentations of flow of isolated heart of a guinea-pig [7]: 60% |
| COc1cc(C(=O)CCn2c(CN(C)C)nc3ccccc32)cc(OC)c1OC [72 534] |  | 50% | 0% |  |  |
| COc1ccc(C(=O)CCn2c(CN(C)C)nc3ccccc32)cc1OC [72 490] |  |  |  | 30% | Percentage augmentations of flow of isolated heart of a guinea-pig [7]: 140% |
